Results taken from US20230416238A1, “N-[(1,3-BENZOXAZOL-2-YL)-HETEROCYCLE]AMIDE DERIVATIVES FOR THE TREATMENT AND PROPHYLAXIS OF HEPATITIS B VIRUS INFECTION” (Hoffmann-La Roche Inc., priority 2020, published 2023).

Tests used:
Type in all cases: cell-based
HBsAg = experiment: PHH HBV natural infection assay, HBsAg (alphalisa); settings: Hepatitis B virus, Hepatocyte, read-out: HBsAg IC50
Method: (§1) Detailed procedures regarding primary human hepatocyte (PHH) HBV natural infection assay are described as below. One tube of frozen PHH (10 million cells) is thawed in 37° C. water bath and then transferred to 20 mL of PHH thawing medium (Sigma, InVitroGRO HT Medium, Cat. S03319) with gently mixing. The cells were then centrifuged at […] for 5 min, the supernatant was discarded and the tube was refilled with 25 mL of PHH plating medium (Sigma, InVitroGRO CP Medium, Cat. S03317). The tube was shaken very gently to re-suspend all cells, and then 50 μL of cells were transferred to each well 384-well collagen I coated plate with appropriate liquid handling equipment, e.g. Integra VIAFLO384 or Agilent Bravo. The cells were then cultured for 24 hours in a cell incubator. For HBV infection, after PHH attachment on the culture plate, the plating medium was removed and replenished with PHH culture medium containing HBV virus. The PHH culture medium was prepared with Dulbecco's Modified Eagle Medium (DMEM)/F12 (1:1 in volume ratio) containing 10% fetal bovine serum (Gibco, Cat. 10099141), 5 ng/mL human epidermal growth factor (Gibco, Cat. PHG0311L), 20 ng/mL dexamethasone (Sigma, Cat. D4902-100 mg), 250 ng/mL human recombinant insulin (Gibco, Cat. 41400045) and 100 U/mL penicillin. HBV virus at 200 genome equivalent (GE) per cell with 4% PEG8000 (Sigma, Cat. P1458) containing culture medium were added to the PHH culture medium for infection. The cells were then cultured for 24 hours in cell incubator. Then the cell culture supernatant was removed. The HBV-infected PHH were cultured with sandwich culture method with MEI culture medium containing 1% DMSO and 0.25 mg/mL matrix gel for 72 hours. The supernatant was then refreshed with PHH culture medium containing different concentrations of testing compounds for two times with 72-hour interval. At the end of treatment, the supernatant was collected for viral markers measurements, including HBsAg, HBeAg, HBV DNA and cytotoxicity. HBsAg and HBeAg were detected using alphalisa method using their specific antibodies. For HBV DNA detection, HBV DNA Quantitative Fluorescence Diagnostic Kit (Sansure Biotech Inc.) was used following the manufacture's protocol. Cytotoxicity was determined using Cell Counting Kit-8 (CCK8, Dojindo Molecular Technologies, Inc.).
(§2) The compounds of the present invention were tested for their capacity to inhibit HBsAg and HBeAg as described herein.

HBeAg = experiment: PHH HBV natural infection assay, HBeAg (alphalisa); settings: Hepatitis B virus, Hepatocyte, read-out: HBeAg IC50
Method: as §1, §2

[1] = Cytotoxicity in PHH natural infection assay (Cell Counting Kit-8); settings: HBV-infected primary human hepatocytes, CCK8
Method: as §1

Compound | IC50 (HBsAg) [µM] | IC50 (HBeAg) [µM] | CC50 at 144 h [1] [µM]
N=S(=O)(CC1CC1)c1ccc(C(=O)NC2CCC3(CC2)CCN(c2nc4cc(Cl)ccc4o2)CC3)o1 (stereo not drawn) [Example 119, N-[3-(5-chloro-1,3-benzoxazol-2-yl)-3-azaspiro[5.5]undecan-9-yl]-5-(cyclopropylmethylsulfonimidoyl)furan-2-carboxamide] | 1.92 | 1.36 | 85.8
O=C(NCC1CCN(c2nc3cc(Cl)ccc3o2)C1)c1ccnc(S(=O)(=O)C2CC2)c1 (stereo not drawn) [Example 11, N-[[1-(5-chloro-1,3-benzoxazol-2-yl)pyrrolidin-3-yl]methyl]-2-cyclopropylsulfonyl-pyridine-4-carboxamide] | 9.14 | 7.85 | > 10
CS(=O)(=O)c1ccc(C(=O)NC2CCC3(CC2)CCN(c2nc4cc(Cl)ccc4o2)CC3)o1 [Example 113, N-[3-(5-chloro-1,3-benzoxazol-2-yl)-3-azaspiro[5.5]undecan-9-yl]-5-methylsulfonyl-furan-2-carboxamide] | 3.59 | 3.27 | > 100
O=C(NC1CCC2(CC1)CCN(c1nc3cc(Cl)ccc3o1)CC2)c1ccc(S(=O)(=O)NC(=O)C2CCC2)o1 [Example 111, N-[3-(5-chloro-1,3-benzoxazol-2-yl)-3-azaspiro[5.5]undecan-9-yl]-5-(cyclobutanecarbonylsulfamoyl)furan-2-carboxamide] | 5.45 | 3.47 | 85.7
O=C(NC1CC2(C1)CN(c1nc3cc(Cl)ccc3o1)C2)c1ccc([S+]([O-])CC2CC2)o1 (stereo not drawn) [Example 61, N-[2-(5-chloro-1,3-benzoxazol-2-yl)-2-azaspiro[3.3]heptan-6-yl]-5-(cyclopropylmethylsulfinyl)furan-2-carboxamide] | 0.189 | 0.402 | 96
CC(C)C(=O)NC1CCC2(CC1)CCN(c1nc3cc(Cl)ccc3o1)CC2 [Example 79, N-[3-(5-chloro-1,3-benzoxazol-2-yl)-3-azaspiro[5.5]undecan-9-yl]-2-methyl-propanamide] | 8.84 | 11.6 | > 100
O=C(NC1CC2(C1)CN(c1nc3cc(Cl)ccc3o1)C2)C1CCS(=O)(=O)C1 (stereo not drawn) [Example 26, N-[2-(5-chloro-1,3-benzoxazol-2-yl)-2-azaspiro[3.3]heptan-6-yl]-1,1-dioxo-thiolane-3-carboxamide] | 8.76 | 4.65 | > 100
CS(=O)(=O)c1cncc(C(=O)NCC2CCN(c3nc4cc(Cl)ccc4o3)CC2)c1 [Example 9, N-[[1-(5-chloro-1,3-benzoxazol-2-yl)-4-piperidyl]methyl]-5-methylsulfonyl-pyridine-3-carboxamide] | 1.5 | 1.83 | > 10
O=C(NCC1CCN(c2nc3cc(Cl)ccc3o2)CC1)c1ccc(C(F)(F)F)o1 [Example 7, N-[[1-(5-chloro-1,3-benzoxazol-2-yl)-4-piperidyl]methyl]-5-(trifluoromethyl)furan-2-carboxamide] | 3.83 | 3.45 | 96.7
CS(=N)(=O)c1ccc(C(=O)NC2CC3(C2)CN(c2nc4cc(Cl)ccc4o2)C3)o1 (stereo not drawn) [Example 40, N-[2-(5-chloro-1,3-benzoxazol-2-yl)-2-azaspiro[3.3]heptan-6-yl]-5-(methylsulfonimidoyl)furan-2-carboxamide] | 6.13 | 4.78 | > 100
O=C(NC1CC2(C1)CN(c1nc3cc(Cl)ccc3o1)C2)c1ccc(S(=O)(=O)NC2CC(F)(F)C2)o1 [Example 60, N-[2-(5-chloro-1,3-benzoxazol-2-yl)-2-azaspiro[3.3]heptan-6-yl]-5-[(3,3-difluorocyclobutyl)sulfamoyl]furan-2-carboxamide] | 2.52 | 2.55 | > 10
COc1cc(C(=O)NC2CC3(C2)CN(c2nc4cc(Cl)ccc4o2)C3)ccn1 [Example 43, N-[2-(5-chloro-1,3-benzoxazol-2-yl)-2-azaspiro[3.3]heptan-6-yl]-2-methoxy-pyridine-4-carboxamide] | 1.76 | 1.01 | 84.8
CC1(C(=O)NC2CCC3(CC2)CCN(c2nc4cc(Cl)ccc4o2)CC3)CCSCC1 [Example 87, N-[3-(5-chloro-1,3-benzoxazol-2-yl)-3-azaspiro[5.5]undecan-9-yl]-4-methyl-tetrahydrothiopyran-4-carboxamide] | 1.43 | 1.13 | > 100
O=C(NC1CCC2(CC1)CCN(c1nc3cc(Cl)ccc3o1)CC2)C1CC2(C1)CS(=O)(=O)C2 [Example 95, N-[3-(5-chloro-1,3-benzoxazol-2-yl)-3-azaspiro[5.5]undecan-9-yl]-2,2-dioxo-2-λ^6-thiaspiro[3.3]heptane-6-carboxamide] | 1.67 | 3.62 | > 100
CC(C)Oc1cc(C(=O)NC2CC3(C2)CN(c2nc4ccc(Cl)cc4o2)C3)ccn1 [Example 41, N-[2-(6-chloro-1,3-benzoxazol-2-yl)-2-azaspiro[3.3]heptan-6-yl]-2-isopropoxy-pyridine-4-carboxamide] | 5.87 | 3.81 | > 10
O=C(NC1CC2(C1)CN(c1nc3cc(Cl)ccc3o1)C2)C1CCS(=O)(=O)CC1 [Example 36, N-[2-(5-chloro-1,3-benzoxazol-2-yl)-2-azaspiro[3.3]heptan-6-yl]-1,1-dioxo-thiane-4-carboxamide] | 8.28 | 4.03 | > 100
C[S@](=N)(=O)c1ccc(C(=O)NC2CC3(C2)CN(c2nc4cc(Cl)ccc4o2)C3)o1 [Example 47, N-[2-(5-chloro-1,3-benzoxazol-2-yl)-2-azaspiro[3.3]heptan-6-yl]-5-[(S)-methylsulfonimidoyl]furan-2-carboxamide] | 4.24 | 2.31 | > 100
O=C(NC1CCC2(CCN(c3nc4cc(Cl)ccc4o3)C2)C1)c1ccc(C(F)(F)F)o1 (stereo not drawn) [Example 75, N-[2-(5-chloro-1,3-benzoxazol-2-yl)-2-azaspiro[4.4]nonan-8-yl]-5-(trifluoromethyl)furan-2-carboxamide] | 8.28 | 7.81 | 91.2
O=C(NCC1CCN(c2nc3cc(Cl)ccc3o2)CC1)C1CS(=O)(=O)C1 [Example 10, N-[[1-(5-chloro-1,3-benzoxazol-2-yl)-4-piperidyl]methyl]-1,1-dioxo-thietane-3-carboxamide] | 9.67 | 10.4 | > 100
CS(=O)(=O)CC(=O)NC1CCC2(CC1)CCN(c1nc3cc(Cl)ccc3o1)CC2 [Example 81, N-[3-(5-chloro-1,3-benzoxazol-2-yl)-3-azaspiro[5.5]undecan-9-yl]-2-methylsulfonyl-acetamide] | 3.49 | 2.28 | 67.3
O=C(NC1CC2(C1)CN(c1nc3cc(Cl)ccc3o1)C2)C1CCC(F)(F)C1 (stereo not drawn) [Example 32, N-[2-(5-chloro-1,3-benzoxazol-2-yl)-2-azaspiro[3.3]heptan-6-yl]-3,3-difluoro-cyclopentanecarboxamide] | 4.25 | 10.3 | > 100
O=C(NC1CCC2(CC1)CCN(c1nc3cc(Cl)ccc3o1)CC2)c1ccc([S+]([O-])CC2CC2)o1 (stereo not drawn) [Example 104, N-[3-(5-chloro-1,3-benzoxazol-2-yl)-3-azaspiro[5.5]undecan-9-yl]-5-(cyclopropylmethylsulfinyl)furan-2-carboxamide] | 1.16 | 0.996 | 94.8
O=C(NC1CCC2(CC1)CN(c1nc3cc(Cl)ccc3o1)C2)c1ccc(C(F)(F)F)o1 [Example 70, N-[2-(5-chloro-1,3-benzoxazol-2-yl)-2-azaspiro[3.5]nonan-7-yl]-5-(trifluoromethyl)furan-2-carboxamide] | 6.09 | 2.96 | > 100
CCS(=O)(=O)c1ccc(C(=O)NC2CC3(C2)CN(c2nc4cc(Cl)ccc4o2)C3)o1 [Example 58, N-[2-(5-chloro-1,3-benzoxazol-2-yl)-2-azaspiro[3.3]heptan-6-yl]-5-ethylsulfonyl-furan-2-carboxamide] | 0.918 | 0.812 | > 100
